From PMC5589637, “New perspectives of cobalt tris(bipyridine) system: anti-cancer effect and its collateral sensitivity towards multidrug-resistant (MDR) cancers” (Oncotarget, 2017)

Columns and labels:
[1] = test system: HCT116 p53^+/+ colon cancer cells; assay: MTT cytotoxicity, HCT116 p53+/+; type: cell-based, human; details: 72 h
Excerpt: (§1) All cells were obtained from the American Type Culture Collection (Rockville, MD, USA) unless otherwise specified. Immortalized wild-type and Atg7-deficient mouse embryonic fibroblasts (MEFs) were kindly provided by Professor Masaaki Komatsu (Juntendo University, School of Medicine, Japan). Taxol-resistant types of MCF-7, HCT-8, A549 cancers cells and cisplatin-resistant SGC7901 cancer cells were purchased from KeyGEN BioTECH, China. Cisplatin-sensitive or –resistant A2780, OV2008 and C13 cancer cells were kindly provided by Prof. Benjamin Tsang (Department of Obstetrics and Gynecology and Department of Cellular and Molecular Medicine, University of Ottawa, Canada). HCT116 p53^+/+ and p53^−/− isogenic human colon cancer cells were kindly provided by Professor Bert Vogelstein (Ludwig Center at Johns Hopkins, Howard Hughes Medical Institute, USA). All media were supplemented with 10% fetal bovine serum and antibiotics penicillin (50 U/ml) and streptomycin (50 μg/ml; Invitrogen, Paisley, Scotland, UK). All cell cultures were incubated at 37°C in a 5% humidified CO2 incubator.
(§2) All tested compounds were dissolved in DMSO at a final concentration of 50 mmol/L and stored at −20°C before use. Cytotoxicity was assessed by using the 3-(4,5-dimethylthiazol-2-yl)-2, 5-diphenyltetrazolium bromide (MTT) (5.0 mg/ml) assay as previously described. Briefly, 4×10^3 cells per well were seeded in 96-well plates before drug treatments. After overnight culture, the cells were then exposed to different concentrations of selected compounds ([…]) for 72 hours. Cells without drug treatment were used as control. Subsequently, MTT (10 μL) solution was added to each well and incubated at 37°C for 4 hours followed by the addition of 100 μL solubilization buffer (10%SDS in 0.01 mol/L HCl) and overnight incubation. A570 nm was then determined in each well on the next day. The percentage of cell viability was calculated using the following formula: Cell viability (%) = Atreated/Acontrol × 100. Data were obtained from three independent experiments.

[2] = test system: MCF-7 (breast cancer) cells; assay: MTT cytotoxicity assay, MCF-7; type: cell-based; details: MCF-7, MTT, 72 h
Method: as §2

[3] = test system: C13 (cisplatin-resistant) cells; assay: MTT cytotoxicity, C13 (cisplatin-resistant); type: cell-based
Excerpt: as §1, §2

[4] = test system: H1299 (lung cancer) cells; assay: MTT cytotoxicity assay, H1299; type: cell-based, human; details: 72 h
Method: as §2

P-gp = P-gp (Homo sapiens, UniProt P08183); details: taxol-resistant MCF-7, HCT-8 and A549, 0.5-10 μM, 4 h, dose-dependent
Sequence of P-gp (P08183 whole entry): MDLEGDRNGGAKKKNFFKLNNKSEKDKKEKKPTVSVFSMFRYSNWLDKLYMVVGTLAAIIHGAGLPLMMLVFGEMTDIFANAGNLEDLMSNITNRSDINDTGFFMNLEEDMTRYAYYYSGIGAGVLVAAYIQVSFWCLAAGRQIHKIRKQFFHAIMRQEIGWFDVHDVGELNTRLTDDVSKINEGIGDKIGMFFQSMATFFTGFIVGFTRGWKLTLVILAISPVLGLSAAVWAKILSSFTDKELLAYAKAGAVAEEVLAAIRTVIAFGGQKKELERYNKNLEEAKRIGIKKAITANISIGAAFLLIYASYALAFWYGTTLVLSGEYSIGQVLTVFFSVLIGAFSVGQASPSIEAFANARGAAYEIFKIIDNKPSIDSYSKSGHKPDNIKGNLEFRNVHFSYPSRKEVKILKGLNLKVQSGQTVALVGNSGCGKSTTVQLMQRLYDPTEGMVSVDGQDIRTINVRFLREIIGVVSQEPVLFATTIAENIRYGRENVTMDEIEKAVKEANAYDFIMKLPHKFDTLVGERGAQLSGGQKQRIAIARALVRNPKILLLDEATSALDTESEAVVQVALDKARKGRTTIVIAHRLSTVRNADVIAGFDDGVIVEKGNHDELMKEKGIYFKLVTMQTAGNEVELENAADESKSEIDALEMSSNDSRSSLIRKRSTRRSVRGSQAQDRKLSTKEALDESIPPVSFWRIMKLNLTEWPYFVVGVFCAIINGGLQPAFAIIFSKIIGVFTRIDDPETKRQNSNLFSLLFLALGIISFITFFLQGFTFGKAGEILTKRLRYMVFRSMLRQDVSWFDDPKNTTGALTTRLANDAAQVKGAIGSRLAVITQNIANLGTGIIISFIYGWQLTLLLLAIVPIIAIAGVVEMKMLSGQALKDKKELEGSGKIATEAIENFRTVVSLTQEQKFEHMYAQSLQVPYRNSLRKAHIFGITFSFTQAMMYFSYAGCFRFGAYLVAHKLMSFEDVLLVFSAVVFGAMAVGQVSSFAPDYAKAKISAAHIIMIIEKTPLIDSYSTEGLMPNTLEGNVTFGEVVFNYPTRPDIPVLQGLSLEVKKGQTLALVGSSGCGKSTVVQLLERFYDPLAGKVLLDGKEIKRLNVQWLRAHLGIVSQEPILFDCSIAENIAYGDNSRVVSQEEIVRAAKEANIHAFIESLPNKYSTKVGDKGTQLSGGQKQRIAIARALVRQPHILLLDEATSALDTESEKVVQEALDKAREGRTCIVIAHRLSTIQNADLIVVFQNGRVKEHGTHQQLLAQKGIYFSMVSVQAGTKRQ
Method: Taxol-resistant cancer cells were seeded in 6 well plate with 2 × 10^5 cells each well and cultured for 24 h at 37°C in an atmosphere containing 5% CO2. […] Subsequently, 5 μg/mL of Rho123 was added to each well and the wells were incubated for another 1 h at 37°C. The accumulation of Rho123 was stopped by washing the cells five times with ice-cold PBS. The cells were then resuspended in 400 μL PBS for flow cytometry analysis. Intracellular fluorescence was measured using a flow cytometer at an excitation wavelength of 488 nm and emission wavelength of 525 nm. All data acquisition and analysis were performed with CellQuest (BD Biosciences, San Jose, CA, USA) with at least three independent experiments. Results were shown as the mean of fluorescence intensity.

[5] = test system: A549 taxol-sensitive cancer cells; assay: MTT cytotoxicity, taxol-sensitive A549; type: cell-based; details: 72 h
Excerpt: as §1, §2

Atg7^+/+ wild-type MEFs = assay: MTT cytotoxicity, Atg7 wild-type MEFs; type: cell-based, mouse; details: 72 h
Excerpt: as §1, with “All media were supplemented with 10% fetal bovine serum and antibiotics penicillin (50 U/ml) and streptomycin (50 μg/ml; Invitrogen, Paisley, Scotland, UK). All cell cultures were incubated at 37°C in a 5% humidified CO2 incubator.” left out
All tested compounds were dissolved in DMSO at a final concentration of 50 mmol/L and stored at −20°C before use. Cytotoxicity was assessed by using the 3-(4,5-dimethylthiazol-2-yl)-2, 5-diphenyltetrazolium bromide (MTT) (5.0 mg/ml) assay as previously described. […] A570 nm was then determined in each well on the next day. The percentage of cell viability was calculated using the following formula: Cell viability (%) = Atreated/Acontrol × 100. […]

[6] = test system: A549 (EGFR wild-type lung cancer) cells; assay: MTT cytotoxicity assay, A549; type: cell-based; details: 72 h
Method: as §2

H1299 cell = assay: Western blot of cell invasion markers MMP-9 and ICAM-1; type: cell-based, human; details: 0.5 μM
Method: Western blot analysis was carried out following standard methods. Cells were lysed with RIPA lysis buffer with protease and phosphatase inhibitor cocktails. Protein concentrations were determined using the Bio-Rad protein assay (Bio-Rad Laboratories, Inc., Hercules, CA, USA). After electrophoresis, the proteins from SDS/PAGE were electro-transferred to a Hybond enhanced chemiluminescence nitrocellulose membrane (Amersham Biosciences, NJ, USA), which was then blocked with 5% dried milk for 1 hour. After washing, the blot was incubated with the indicated primary antibodies overnight at 4°C. Detection was performed using appropriated HRP-conjugated secondary antibodies for 1 hour at RT followed by chemiluminescence (Invitrogen).

[7] = test system: SGC-7901 cisplatin-sensitive cancer cells; assay: MTT cytotoxicity, cisplatin-sensitive SGC-7901; type: cell-based; details: 72 h
Excerpt: as §1, §2

[8] = test system: A2780 cisplatin-sensitive cancer cells; assay: MTT cytotoxicity, cisplatin-sensitive A2780; type: cell-based; details: 72 h
Excerpt: as §1, §2

[9] = Pharmacokinetic study (HPLC-MS of blood samples); type: in vivo; details: male C57BL/6 mice
Method: Pharmacokinetic study of cobalt complex 2 was performed in male C57BL/6 mice by the dosage of 40 mg/kg. The source of mouse and practice of husbandry were the same as described in the methodology section of LLC-1 Xenograft Tumor experiment. Cobalt complex 2 was diluted in the formula (PEG400: H2O: Ethanol = 6:3:1) and administered by intraperitoneal in a volume of 0.005 mL/g bodyweight. After dosing, blood samples were collected to sodium heparin anticoagulant tube at different time points (5, 15, 30 min, and then 1, 2, 4, 8, 12 and 24 hours); 4 mice were used for each time point. Approximately 200 μL of blood was collected via orbital vein from each anesthetized mouse by isoflurane. Plasma was separated by centrifugation at 3000 g for 10 minutes at 4°C. The plasma was protected and stored at −80°C until analyzed by liquid chromatography-mass spectrometry/mass spectrometry (LC-MS/MS) for quantification.
Plasma samples were thawed at room temperature and then vortexed to ensure sample solution homogeneity. Firstly, a 20 μL aliquot of each plasma sample were loaded into 1.5 mL tube, 100 μL acetonitrile was added, vortexed then centrifuged at 13000 rpm for 10 min. the supernatant was collected. The plasma cobalt complex 2 concentrations were quantified using Thermo HPLC Ultimate 3000 system. The compound in plasma samples were analyzed by using the Agilent Zorbax Eclipse Plus C-18 column with a particle size of 1.8 μm. The parameters of the gradient elution program were applied as follows: mobile phase A (0.1% formic acid in water) and mobile phase B acetonitrile: 0–5.5 min, 20% B; 5.5–7 min, 90% B; 7–10 min, 20% B. The column and autosampler temperature were maintained at 40 and 4 °C, respectively. The gas temperature was set 320 °C with flow rate (0.8 mL/min), gases were set at 10 psi for the nebulizer, capillary, 3500 V.

## Cc1ccnc(-c2cc(C)ccn2)c1.Cc1ccnc(-c2cc(C)ccn2)c1.Cc1ccnc(-c2cc(C)ccn2)c1.F[P-](F)(F)(F)(F)F.F[P-](F)(F)(F)(F)F.F[P-](F)(F)(F)(F)F.[Co+3] [complex 2, [Co^III(4,4’-Me2-bpy)3](PF6)3]
[1]
  IC50: 15.4 µM
[2]
  IC50: 6.03 µM
[3]; C13 (cisplatin-resistant), MTT, 72 h, read-out: IC50 value, cisplatin-resistant cancer, C13
  IC50: 7.59 µM
[3]; C13 (resistant) IC50 over OV2008 (sensitive) IC50
  Resistant Factor, OV2008/C13 pair: 1.0
[4]
  IC50: 2.84 µM
P-gp
  effect on P-gp activity (Rho123 accumulation): induced inhibitory effects towards P-gp activity in all the treated cell lines
[5]
  IC50: 11.5 µM
Atg7^+/+ wild-type MEFs
  IC50: 4.84 µM
[6]
  IC50: 7.86 µM
H1299 cell
  expression of MMP-9 and ICAM-1: significantly downregulated
[7]
  IC50: 11.1 µM
[8]
  IC50: 12.3 µM
[9]; 40 mg/kg intraperitoneal of complex 2, 5 min to 24 hours
  species detected in blood samples by HPLC-MS: neither cobalt complex 2 nor its decomposed species was observed
[9]; 40 mg/kg intraperitoneal, after 2-hour time interval
  metabolism after absorption: almost complete metabolism
